# Assay results: US20260053811A1, “METHODS OF TREATING HYPERTENSION IN OBESE SUBJECTS” (Mineralys Therapeutics, Inc., priority 2022, published 2026)
# System: hypertensive subjects
# Experiment: Adverse events (TEAEs, SAEs, AESI, study drug discontinuation, dose modification);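 also: counts of spontaneously reported adverse events in the Safety Analysis Set, subjects grouped by treatment actually received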
# Type: in vivo, human
# Conditions: Part 1
# Source text: In analyses performed on the Safety Analysis Set, subjects will be analyzed according to their actual treatment received.
smiles,measurement,setting,value
CC(=O)N[C@H]1CC[C@H](NC(=O)CN2CCN(c3nncc(-c4ccc(C)cc4)n3)CC2)CC1 [Compound A HBr],On-treatment TEAE: General disorders and administration site conditions,50 mg QD (N = 28),2 (7.1) n (%)
same,"On-treatment TEAE: General disorders and administration site conditions, Mild",50 mg QD (N = 28),1 (3.6) n (%)
same,On-treatment TEAE: Glomerular filtration rate decreased,50 mg QD (N = 28),0 n (%)
same,On-treatment TEAE: Headache,50 mg QD (N = 28),1 (3.6) n (%)
same,"On-treatment TEAE: Headache, Mild",50 mg QD (N = 28),1 (3.6) n (%)
same,On-treatment TEAE: Hyperkalaemia,50 mg QD (N = 28),3 (10.7) n (%)
same,"On-treatment TEAE: Hyperkalaemia, Mild",50 mg QD (N = 28),3 (10.7) n (%)
same,"On-treatment TEAE: Hyperkalaemia, Moderate",50 mg QD (N = 28),0 n (%)
same,"On-treatment TEAE: Hyperkalaemia, Severe",50 mg QD (N = 28),0 n (%)
same,On-treatment TEAE: Hypertension,50 mg QD (N = 28),2 (7.1) n (%)
same,"On-treatment TEAE: Hypertension, Moderate",50 mg QD (N = 28),2 (7.1) n (%)
same,On-treatment TEAE: Infections and infestations,50 mg QD (N = 28),2 (7.1) n (%)
same,"On-treatment TEAE: Infections and infestations, Mild",50 mg QD (N = 28),0 n (%)
same,"On-treatment TEAE: Infections and infestations, Moderate",50 mg QD (N = 28),2 (7.1) n (%)
same,On-treatment TEAE: Investigations,50 mg QD (N = 28),1 (3.6) n (%)
same,"On-treatment TEAE: Investigations, Mild",50 mg QD (N = 28),1 (3.6) n (%)
same,"On-treatment TEAE: Investigations, Moderate",50 mg QD (N = 28),0 n (%)
same,On-treatment TEAE: Metabolism and nutrition disorders,50 mg QD (N = 28),5 (17.9) n (%)
same,"On-treatment TEAE: Metabolism and nutrition disorders, Mild",50 mg QD (N = 28),5 (17.9) n (%)
same,"On-treatment TEAE: Metabolism and nutrition disorders, Moderate",50 mg QD (N = 28),0 n (%)
same,On-treatment TEAE: Nervous system disorders,50 mg QD (N = 28),2 (7.1) n (%)
same,"On-treatment TEAE: Nervous system disorders, Mild",50 mg QD (N = 28),1 (3.6) n (%)
same,On-treatment TEAE: Orthostatic hypotension,50 mg QD (N = 28),0 n (%)
same,"On-treatment TEAE: Orthostatic hypotension, Mild",50 mg QD (N = 28),0 n (%)
same,On-treatment TEAE: Psychiatric disorders,50 mg QD (N = 28),0 n (%)
same,"On-treatment TEAE: Psychiatric disorders, Moderate",50 mg QD (N = 28),0 n (%)
same,On-treatment TEAE: Urinary tract infection,50 mg QD (N = 28),2 (7.1) n (%)
same,"On-treatment TEAE: Urinary tract infection, Mild",50 mg QD (N = 28),1 (3.6) n (%)
same,On-treatment TEAE: Vascular disorders,50 mg QD (N = 28),2 (7.1) n (%)
same,"On-treatment TEAE: Vascular disorders, Mild",50 mg QD (N = 28),0 n (%)
same,"On-treatment TEAE: Vascular disorders, Moderate",50 mg QD (N = 28),2 (7.1) n (%)
same,"On-treatment TEAE: any, Mild",50 mg QD (N = 28),4 (14.3) n (%)
same,"On-treatment TEAE: any, Moderate",50 mg QD (N = 28),6 (21.4) n (%)
same,"On-treatment TEAE: any, Severe",50 mg QD (N = 28),0 n (%)
same,Subjects with any On-treatment TEAEs leading to withdrawal from study drug,50 mg QD (N = 28),0 n (%)
same,TEAE leading to permanent discontinuation from study drug: Activated partial thromboplastin time prolonged,50 mg QD (N = 28),0 n (%)
same,TEAE leading to permanent discontinuation from study drug: Cardiac disorders,50 mg QD (N = 28),0 n (%)
same,TEAE leading to permanent discontinuation from study drug: Coronary artery disease,50 mg QD (N = 28),0 n (%)
same,TEAE leading to permanent discontinuation from study drug: Dizziness,50 mg QD (N = 28),0 n (%)
same,TEAE leading to permanent discontinuation from study drug: Hyperkalaemia,50 mg QD (N = 28),0 n (%)
same,TEAE leading to permanent discontinuation from study drug: Hypertension,50 mg QD (N = 28),0 n (%)
same,TEAE leading to permanent discontinuation from study drug: Hypotension,50 mg QD (N = 28),0 n (%)
same,TEAE leading to permanent discontinuation from study drug: Investigations,50 mg QD (N = 28),0 n (%)
same,TEAE leading to permanent discontinuation from study drug: Metabolism and nutrition disorders,50 mg QD (N = 28),0 n (%)
same,TEAE leading to permanent discontinuation from study drug: Nervous system disorders,50 mg QD (N = 28),0 n (%)
same,TEAE leading to permanent discontinuation from study drug: Orthostatic hypotension,50 mg QD (N = 28),0 n (%)
same,TEAE leading to permanent discontinuation from study drug: Vascular disorders,50 mg QD (N = 28),0 n (%)
same,On-treatment TEAE: Blood and lymphatic system disorders,100 mg QD (N = 30),0 n (%)
same,"On-treatment TEAE: Blood and lymphatic system disorders, Mild",100 mg QD (N = 30),0 n (%)
same,On-treatment TEAE: Blood creatinine increased,100 mg QD (N = 30),3 (10.0) n (%)
same,"On-treatment TEAE: Blood creatinine increased, Mild",100 mg QD (N = 30),3 (10.0) n (%)
same,On-treatment TEAE: Cardiac disorders,100 mg QD (N = 30),0 n (%)
same,On-treatment TEAE: Cortisol decreased,100 mg QD (N = 30),0 n (%)
same,"On-treatment TEAE: Cortisol decreased, Mild",100 mg QD (N = 30),0 n (%)
same,On-treatment TEAE: Dizziness,100 mg QD (N = 30),0 n (%)
same,On-treatment TEAE: Gastrointestinal disorders,100 mg QD (N = 30),2 (6.7) n (%)
same,"On-treatment TEAE: Gastrointestinal disorders, Mild",100 mg QD (N = 30),2 (6.7) n (%)
same,On-treatment TEAE: General disorders and administration site conditions,100 mg QD (N = 30),0 n (%)
same,"On-treatment TEAE: General disorders and administration site conditions, Mild",100 mg QD (N = 30),0 n (%)
same,On-treatment TEAE: Glomerular filtration rate decreased,100 mg QD (N = 30),5 (16.7) n (%)
same,On-treatment TEAE: Headache,100 mg QD (N = 30),0 n (%)
same,"On-treatment TEAE: Headache, Mild",100 mg QD (N = 30),0 n (%)
same,On-treatment TEAE: Hyperkalaemia,100 mg QD (N = 30),8 (26.7) n (%)
same,"On-treatment TEAE: Hyperkalaemia, Mild",100 mg QD (N = 30),8 (26.7) n (%)
same,"On-treatment TEAE: Hyperkalaemia, Moderate",100 mg QD (N = 30),0 n (%)
same,"On-treatment TEAE: Hyperkalaemia, Severe",100 mg QD (N = 30),0 n (%)
same,On-treatment TEAE: Hypertension,100 mg QD (N = 30),0 n (%)
same,"On-treatment TEAE: Hypertension, Moderate",100 mg QD (N = 30),0 n (%)
same,On-treatment TEAE: Infections and infestations,100 mg QD (N = 30),2 (6.7) n (%)
same,"On-treatment TEAE: Infections and infestations, Mild",100 mg QD (N = 30),0 n (%)
same,"On-treatment TEAE: Infections and infestations, Moderate",100 mg QD (N = 30),2 (6.7) n (%)
same,On-treatment TEAE: Investigations,100 mg QD (N = 30),8 (26.7) n (%)
same,"On-treatment TEAE: Investigations, Mild",100 mg QD (N = 30),6 (20.0) n (%)
same,"On-treatment TEAE: Investigations, Moderate",100 mg QD (N = 30),2 (6.7) n (%)
same,On-treatment TEAE: Metabolism and nutrition disorders,100 mg QD (N = 30),8 (26.7) n (%)
same,"On-treatment TEAE: Metabolism and nutrition disorders, Mild",100 mg QD (N = 30),8 (26.7) n (%)
same,"On-treatment TEAE: Metabolism and nutrition disorders, Moderate",100 mg QD (N = 30),0 n (%)
same,On-treatment TEAE: Nervous system disorders,100 mg QD (N = 30),0 n (%)
same,"On-treatment TEAE: Nervous system disorders, Mild",100 mg QD (N = 30),0 n (%)
same,On-treatment TEAE: Orthostatic hypotension,100 mg QD (N = 30),0 n (%)
same,"On-treatment TEAE: Orthostatic hypotension, Mild",100 mg QD (N = 30),0 n (%)
same,On-treatment TEAE: Psychiatric disorders,100 mg QD (N = 30),2 (6.7) n (%)
same,"On-treatment TEAE: Psychiatric disorders, Moderate",100 mg QD (N = 30),2 (6.7) n (%)
same,On-treatment TEAE: Urinary tract infection,100 mg QD (N = 30),1 (3.3) n (%)
same,"On-treatment TEAE: Urinary tract infection, Mild",100 mg QD (N = 30),0 n (%)
same,On-treatment TEAE: Vascular disorders,100 mg QD (N = 30),1 (3.3) n (%)
same,"On-treatment TEAE: Vascular disorders, Mild",100 mg QD (N = 30),0 n (%)
same,"On-treatment TEAE: Vascular disorders, Moderate",100 mg QD (N = 30),1 (3.3) n (%)
same,"On-treatment TEAE: any, Mild",100 mg QD (N = 30),9 (30.0) n (%)
same,"On-treatment TEAE: any, Moderate",100 mg QD (N = 30),7 (23.3) n (%)
same,"On-treatment TEAE: any, Severe",100 mg QD (N = 30),0 n (%)
same,Subjects with any On-treatment TEAEs leading to withdrawal from study drug,100 mg QD (N = 30),4 (13.3) n (%)
same,TEAE leading to permanent discontinuation from study drug: Activated partial thromboplastin time prolonged,100 mg QD (N = 30),1 (3.3) n (%)
same,TEAE leading to permanent discontinuation from study drug: Cardiac disorders,100 mg QD (N = 30),0 n (%)
same,TEAE leading to permanent discontinuation from study drug: Coronary artery disease,100 mg QD (N = 30),0 n (%)
same,TEAE leading to permanent discontinuation from study drug: Dizziness,100 mg QD (N = 30),0 n (%)
same,TEAE leading to permanent discontinuation from study drug: Hyperkalaemia,100 mg QD (N = 30),2 (6.7) n (%)
same,TEAE leading to permanent discontinuation from study drug: Hypertension,100 mg QD (N = 30),0 n (%)
same,TEAE leading to permanent discontinuation from study drug: Hypotension,100 mg QD (N = 30),1 (3.3) n (%)
same,TEAE leading to permanent discontinuation from study drug: Investigations,100 mg QD (N = 30),1 (3.3) n (%)
same,TEAE leading to permanent discontinuation from study drug: Metabolism and nutrition disorders,100 mg QD (N = 30),2 (6.7) n (%)
same,TEAE leading to permanent discontinuation from study drug: Nervous system disorders,100 mg QD (N = 30),0 n (%)
